Reference: paper PMC8171083, “A nano-predator of pathological MDMX construct by clearable supramolecular gold(I)-thiol-peptide complexes achieves safe and potent anti-tumor activity” (Theranostics, 2021)
Where a SMILES comes first, the peptide text is derived from it. The star is where a group is joined. Cbz = O=C(OCc1ccccc1)*

Target: T1, MDMX (Homo sapiens, UniProt O15151)
T1 construct: endogenous in cells; host or cells: WERI-Rb-1 (ATCC)
T1 sequence (O15151 1-490): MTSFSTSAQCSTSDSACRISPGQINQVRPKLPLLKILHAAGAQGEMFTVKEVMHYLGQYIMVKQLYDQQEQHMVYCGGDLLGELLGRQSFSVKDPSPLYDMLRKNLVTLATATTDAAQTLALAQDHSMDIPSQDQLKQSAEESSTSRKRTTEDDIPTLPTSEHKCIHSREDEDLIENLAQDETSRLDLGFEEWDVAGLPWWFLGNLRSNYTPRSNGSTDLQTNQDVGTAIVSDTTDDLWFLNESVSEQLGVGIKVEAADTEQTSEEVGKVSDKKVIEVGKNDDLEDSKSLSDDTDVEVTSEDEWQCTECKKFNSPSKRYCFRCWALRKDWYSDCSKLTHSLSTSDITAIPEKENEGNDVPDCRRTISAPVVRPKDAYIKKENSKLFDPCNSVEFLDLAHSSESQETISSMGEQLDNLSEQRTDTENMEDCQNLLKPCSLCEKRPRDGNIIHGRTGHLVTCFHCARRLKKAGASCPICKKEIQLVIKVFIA
Assay: MDMX degradation by western blot
Assay type: cell-based
Conditions: 200 nM Nano-MP@PSI, 12-hour preincubation of inhibitor
Text: The protein fraction of cell lysates was resolved by 10%SDS/PAGE before membrane
transfer. Primary antibodies were from Santa Cruz Biotechnology (p53), Abcam (p73), Proteintech
(MDMX，p21, GAPDH); secondary antibodies conjugated with horseradish peroxidase were from […]

SMILES | Effect on MDMX degradation by Nano-MP@PSI
CCN(CC)CCCC(C)Nc1ccnc2cc(Cl)ccc12 (stereo not drawn) [chloroquine] | neither a chloroquine (a lysosome inhibitor) nor NH4Cl (an autophagy inhibitor) had any effect
Cl.N [NH4Cl] | neither a chloroquine (a lysosome inhibitor) nor NH4Cl (an autophagy inhibitor) had any effect
CC(C)C[C@@H](C=O)NC(=O)[C@H](CC(C)C)NC(=O)[C@H](CC(C)C)NC(=O)OCc1ccccc1 [MG132] (Cbz-Leu-Leu-Leu-aldehyde) | totally inhibits
CCOC(=O)c1ccc(N2NC(=O)/C(=C/c3ccc([N+](=O)[O-])o3)C2=O)cc1 [PYR41] | totally inhibits

Test system: WERI-Rb-1 cells
Assay: Cell uptake analysis by flow cytometry (FITC-labelled)
Assay type: cell-based
Conditions: pH 6.5; 3 mM Amiloride, 2 μM cytochalasin D

SMILES | Effect of preincubation on Nano-FITCMG@PSI internalization
C=C1[C@@H](C)[C@H]2[C@H](Cc3ccccc3)NC(=O)[C@]23[C@H](OC(C)=O)/C=C/[C@@](C)(O)C(=O)[C@@H](C)C/C=C/[C@H]3[C@@H]1O [cytochalasin D] | suppressed
N=C(N)NC(=O)c1nc(Cl)c(N)nc1N [Amiloride] | suppressed
